This is an account of results in US20150038430A1, “THERAPEUTIC PEPTIDOMIMETIC MACROCYCLES” (AILERON Therapeutics, Inc., priority 2008, published 2015).

In one assay the test system is MM1S. The class given is cell-based, human. To be noted: 24 h. How it is done:
(§1) Cell viability assays shown in FIGS. 34-52 were performed according to a similar protocol. Cells were split at optimal cell density a day prior to the initiation of the study. The next day, cells were washed twice in serum-free Opti-MEM media and 4000 cells/well were added to each well in a final volume of […] Opti-MEM. For serum-free experiments, macrocycles were diluted from 2 mM stocks (100% DMSO) in sterile water to prepare 400 μM working solutions. A 40 μM solution was then generated by ten-fold dilution in assay buffer. The macrocycle and controls were then serially diluted two-fold in assay buffer in dosing plates to provide concentrations between 1.2 and 40 μM, respectively. For experiments in 2% human serum, macrocycles were diluted from 10 mM stocks (100% DMSO) in sterile water to prepare 1 mM working solutions. A 100 μM solution was generated by ten-fold dilution in assay buffer. The macrocycles and controls were then serially diluted two-fold in assay buffer in dosing plates to provide concentrations between 3 and 100 μM, respectively. 50 μl of each dilution was then added to the appropriate wells of the test plate to achieve final concentrations of the macrocycle between 0.6 to 20 μM (for serum free experiment) or 1.5 to 50 μM (for 2% serum experiment), respectively. Controls included wells without macrocycles containing the same concentration of DMSO as the macrocycle-containing wells, wells containing 0.1% Triton X-100, and wells containing no cells. Plates were incubated for 24 hours at 37° C. in a humidified 5% CO2 atmosphere. At the end of a 24 hr incubation period, a CellTiter-Glo Luminescent Cell Viability Assay was performed according to manufacturer's instructions (Promega, catalog #G7571) and the luminescence was measured using a BIO-TEK synergy HT Plate reader. Values were plotted as percent viable, i.e. as a percentage of the negative control value (derived from cells exposed to DMSO only). All assays were performed in duplicate.
(§2) The following tables summarize the EC50 values (μM) observed with peptidomimetic macrocycles of the invention in various cell lines: […]

A further assay has as its system Raji. It is filed as cell-based, human. Particulars: 24 h. Here is the method: as §1, §2
Another assay concerns MDA-MB231-Met. The class given is cell-based, human. To be noted: 24 h. How it is done: as §1, §2
For another assay, the system named is DHL-6. The class given is cell-based, human. To be noted: 24 h. How it is done:
as §1, §2

For the next assay, the system named is A375. The class given is cell-based, human. Particulars: 24 h. Here is the method:
as §1, §2

In a further assay the test system is PC3. The class given is cell-based, human. Particulars: 24 h. How it is done: as §1, §2
The next assay deals with OVCAR8. The class given is cell-based, human. Particulars: 24 h. Here is the method: as §1, §2
The next assay concerns SEMK2. It is filed as cell-based, human. To be noted: 24 h. Here is the method:
as §1, §2

The next assay deals with Jurkat. It is filed as cell-based, human. To be noted: 24 h. How it is done: as §1, §2
For the next assay, the system named is RS4;11. The class given is cell-based, human. To be noted: 24 h. How it is done:
as §1, §2

For the next assay, the system named is NCI-H82 (SCLC-MCL1+). It is filed as cell-based, human. To be noted: 24 h. Here is the method:
as §1, §2

The next assay has as its system Molt-4. It is filed as cell-based, human. Particulars: 24 h. How it is done: as §1, §2
The next assay addresses Bcl-xL (Homo sapiens, UniProt Q07817). Description: Protein-ligand binding experiment (SEC-LC-MS). Particulars: 1 μM macrocycle plus 5 μM Bcl-xL, 60 min room temperature. How it is done:
Protein-ligand binding experiments were conducted according to the following representative procedure outlined for a system-wide control experiment using 1 μM SP-4 plus 5 μM Bcl-xL. A 1 μl DMSO aliquot of a 40 μM stock solution of peptidomimetic macrocycle was dissolved in 19 μl of PBS (Phosphate-buffered saline: 50 mM, pH 7.5 Phosphate buffer containing 150 mM NaCl). The resulting solution was mixed by repeated pipetting and clarified by centrifugation at 10 000 g for 10 min. To a 4 μl aliquot of the resulting supernatant was added 4 μl of 10 μM BCL-xL in PBS. Each 8.0 μl experimental sample thus contained 40 pmol (1.5 μg) of protein at 5.0 μM concentration in PBS plus 1 μM peptidomimetic macrocycle and 2.5% DMSO. Duplicate samples thus prepared for each concentration point were incubated for 60 min at room temperature, and then chilled to 4° C. prior to size-exclusion chromatography-LC-MS analysis of 5.0 μL injections. Samples containing a target protein, protein-ligand complexes, and unbound compounds were injected onto an SEC column, where the complexes were separated from non-binding component by a rapid SEC step. The SEC column eluate was monitored using UV detectors to confirm that the early-eluting protein fraction, which elutes in the void volume of the SEC column, was well resolved from unbound components that are retained on the column. […]

The target of the next assay is T1, BAX (Homo sapiens, UniProt Q07812).
T1 construct: endogenous in cells; host or cells: MM1S multiple myeloma cells (lysate)
Description: Immunoprecipitation in MM1S cell lysates. It is filed as binding. Particulars: multiple myeloma (MM1S) cell lysates. Here is the method:
It is possible to measure binding of peptides or peptidomimetic macrocycles to their natural acceptors in cell lysates or intact cells by immunoprecipitation and pull-down experiments. For example, intact cells are incubated with fluoresceinated (FITC-labeled) or biotinylated compounds for 4 hrs in the absence of serum, followed by serum replacement and further incubation that ranges from 4-18 hrs. Alternatively, cells can be incubated for the duration of the experiment in Opti-MEM (Invitrogen). Cells are then pelleted and incubated in lysis buffer (50 mM Tris [pH 7.6], 150 mM NaCl, 1% CHAPS and protease inhibitor cocktail) for 10 minutes at 4° C. 1% NP-40 or Triton X-100 may be used instead of CHAPS. Extracts are centrifuged at 14,000 rpm for 15 minutes and supernatants collected and incubated with 10 μl goat anti-FITC antibody or streptavidin-coated beads for 2 hrs, rotating at 4° C. followed by further 2 hrs incubation at 4° C. with protein A/G Sepharose (50 μl of 50% bead slurry).). No secondary step is necessary if using streptavidin beads to pull down biotinylated compounds. […]

Chain of Bcl-xL (Q07817 whole entry): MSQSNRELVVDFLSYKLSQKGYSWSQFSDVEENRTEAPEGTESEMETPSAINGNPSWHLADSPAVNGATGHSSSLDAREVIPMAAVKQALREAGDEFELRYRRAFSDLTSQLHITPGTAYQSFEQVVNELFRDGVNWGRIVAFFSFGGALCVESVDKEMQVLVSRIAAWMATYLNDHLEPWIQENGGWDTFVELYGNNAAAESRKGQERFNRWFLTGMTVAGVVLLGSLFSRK
T1 sequence (Q07812 whole entry): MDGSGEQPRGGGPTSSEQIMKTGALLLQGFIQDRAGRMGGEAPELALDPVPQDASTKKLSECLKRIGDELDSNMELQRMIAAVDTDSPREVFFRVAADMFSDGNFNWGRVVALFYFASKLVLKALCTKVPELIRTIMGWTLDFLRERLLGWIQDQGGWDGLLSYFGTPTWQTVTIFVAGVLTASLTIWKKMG

One may read the EC50 as the midpoint of the concentration-response curve. For the compound `CC[C@H](C)[C@H](NC(C)=O)C(=O)N[C@@H](Cc1c[nH]c2ccccc12)C(=O)N[C@H](C(=O)N[C@@H](C)C(=O)N[C@@H](CCC(N)=O)C(=O)N[C@@H](CCC(=O)O)C(=O)N[C@@H](CC(C)C)C(=O)N[C@@H](CCCNC(=N)N)C(=O)NC1(C)CCCC=CCCCC(C)(C(=O)N[C@@H](Cc2ccccc2)C(=O)N[C@@H](CC(N)=O)C(=O)N[C@@H](C)C(=O)N[C@@H](Cc2ccc(O)cc2)C(=O)N[C@@H](Cc2ccc(O)cc2)C(=O)N[C@@H](C)C(=O)N[C@@H](CCCNC(=N)N)C(=O)N[C@@H](CCCNC(=N)N)C(N)=O)NC(=O)[C@H](CC(=O)O)NC(=O)CNC(=O)[C@H]([C@@H](C)CC)NC1=O)[C@@H](C)CC` (some centres unmarked) [SP-4], the EC50 was 4.9 µM in the assay with MM1S; 9 µM with Raji; 8.5 µM in the assay with MDA-MB231-Met; 3.8 µM with DHL-6; 8 µM in the assay with A375; 5 µM in the assay on PC3. Besides, the EC50 stood at 20 µM in the assay on OVCAR8; 4 µM in the assay with SEMK2; 1600 nM in the assay with Jurkat; 10 µM in the assay with RS4;11; 4.9 µM in the assay with NCI-H82 (SCLC-MCL1+); 2200 nM in the assay on Molt-4. For the same compound, the “detection of protein-ligand complex with Bcl-xL” value on Bcl-xL is given as “detection of the protein-ligand complex”. Besides, the “binding to pro-apoptotic target protein BAX” value at BAX was “sequence-specific and structure-specific binding”.
